Results taken from article PMC5218480 (PLoS ONE, 2017).

System: MV-4-11 cells
Experiment: Gene expression microarray analysis (Affymetrix PrimeView) and GSEA
Format: cell-based, human
Design: RFU PODN (11730768_x_at) / Fold change /veh PODN (11730768_x_at) / RFU LINC00158 (11744669_a_at) / Fold change /veh LINC00158 (11744669_a_at) / RFU DUSP10 (11751237_a_at) / Fold change /veh DUSP10 (11751237_a_at) / RFU ID3 (11757404_x_at) / Fold change /veh ID3 (11757404_x_at) / RFU PLEKHG5 (11737974_s_at) / Fold change /veh PLEKHG5 (11737974_s_at) / RFU LRRC4B (11730491_at) / Fold change /veh LRRC4B (11730491_at) / RFU GIMAP4 (11747438_a_at) / Fold change /veh GIMAP4 (11747438_a_at) / RFU KRT8 (11758183_x_at) / Fold change /veh KRT8 (11758183_x_at) / RFU CNN1 (11734310_a_at) / Fold change /veh CNN1 (11734310_a_at) / RFU VPS37D (11726825_at) / Fold change /veh VPS37D (11726825_at) / RFU C10orf10 (11716522_x_at) / Fold change /veh C10orf10 (11716522_x_at) / RFU KIR2DL2 /// KIR2DL4 /// KIR2DL5A /// KIR2DL5B /// KIR2DS1 /// KIR2DS2 /// KIR2DS3 /// KIR2DS4 /// KIR3DL3 /// KIR3DL3 /// KIR3DS1 (11738374_at) / Fold change /veh KIR2DL2 /// KIR2DL4 /// KIR2DL5A /// KIR2DL5B /// KIR2DS1 /// KIR2DS2 /// KIR2DS3 /// KIR2DS4 /// KIR3DL3 /// KIR3DL3 /// KIR3DS1 (11738374_at) / RFU C1QL1 (11718748_at) / Fold change /veh C1QL1 (11718748_at) / RFU TMPRSS4 (11747572_a_at) / Fold change /veh TMPRSS4 (11747572_a_at) / RFU HAMP (11756126_x_at) / Fold change /veh HAMP (11756126_x_at) / RFU RNFT2 (11725882_a_at) / Fold change /veh RNFT2 (11725882_a_at) / RFU NR4A2 (11747474_a_at) / Fold change /veh NR4A2 (11747474_a_at) / RFU ABCC12 (11746883_a_at) / Fold change /veh ABCC12 (11746883_a_at) / RFU TMEM136 (11760407_x_at) / Fold change /veh TMEM136 (11760407_x_at) / RFU CLDN22 /// WWC2 (11732394_at) / Fold change /veh CLDN22 /// WWC2 (11732394_at) / RFU HLA-DPB1 (11760878_x_at) / Fold change /veh HLA-DPB1 (11760878_x_at) / RFU SPINT1 (11716480_a_at) / Fold change /veh SPINT1 (11716480_a_at) / RFU GAP43 (11754022_s_at) / Fold change /veh GAP43 (11754022_s_at) / RFU A4GNT (11735810_at) / Fold change /veh A4GNT (11735810_at) / RFU PRB3 (11715151_x_at) / Fold change /veh PRB3 (11715151_x_at) / RFU TUBB4B (11761932_at) / Fold change /veh TUBB4B (11761932_at) / RFU CAPN14 (11732068_a_at) / Fold change /veh CAPN14 (11732068_a_at) / RFU TMCC2 (11721928_a_at) / Fold change /veh TMCC2 (11721928_a_at) / RFU IRGQ (11745062_a_at) / Fold change /veh IRGQ (11745062_a_at) / RFU FAM174B (11720279_a_at) / Fold change /veh FAM174B (11720279_a_at) / RFU TMPRSS4 (11748680_a_at) / Fold change /veh TMPRSS4 (11748680_a_at) / RFU FAM212B (11763350_a_at) / Fold change /veh FAM212B (11763350_a_at) / RFU PLEKHG5 (11743358_a_at) / Fold change /veh PLEKHG5 (11743358_a_at) / RFU ZSCAN30 (11745921_a_at) / Fold change /veh ZSCAN30 (11745921_a_at) / RFU CMKLR1 (11741424_a_at) / Fold change /veh CMKLR1 (11741424_a_at) / RFU LOC101060620 /// MAPK8IP1 (11723275_at) / Fold change /veh LOC101060620 /// MAPK8IP1 (11723275_at) / RFU SPTSSB (11747773_x_at) / Fold change /veh SPTSSB (11747773_x_at) / RFU PRSS12 (11739890_at) / Fold change /veh PRSS12 (11739890_at) / RFU BIN1 (11741810_x_at) / Fold change /veh BIN1 (11741810_x_at) / RFU WNT11 (11732464_a_at) / Fold change /veh WNT11 (11732464_a_at) / RFU C10orf10 (11716521_a_at) / Fold change /veh C10orf10 (11716521_a_at) / RFU C5orf56 (11738089_at) / Fold change /veh C5orf56 (11738089_at) / RFU CYB561 (11721691_x_at) / Fold change /veh CYB561 (11721691_x_at) / RFU ANKRD19P (11752326_a_at) / Fold change /veh ANKRD19P (11752326_a_at) / RFU OR2T12 /// OR2T33 /// OR2T8 (11738714_s_at) / Fold change /veh OR2T12 /// OR2T33 /// OR2T8 (11738714_s_at) / RFU VCAN (11748164_a_at) / Fold change /veh VCAN (11748164_a_at) / RFU JSRP1 (11732532_at) / Fold change /veh JSRP1 (11732532_at) / RFU KRTAP10-11 (11738290_x_at) / Fold change /veh KRTAP10-11 (11738290_x_at) / RFU MYO3A (11730013_a_at) / Fold change /veh MYO3A (11730013_a_at) / RFU EBF3 (11725865_a_at) / Fold change /veh EBF3 (11725865_a_at) / RFU CAMK2N1 (11719241_x_at) / Fold change /veh CAMK2N1 (11719241_x_at) / RFU C5orf56 (11738088_a_at) / Fold change /veh C5orf56 (11738088_a_at) / RFU OLFML3 (11715873_a_at) / Fold change /veh OLFML3 (11715873_a_at) / RFU LOC100653217 /// NTM (11731650_a_at) / Fold change /veh LOC100653217 /// NTM (11731650_a_at) / RFU MAPK11 (11762145_a_at) / Fold change /veh MAPK11 (11762145_a_at) / RFU FIZ1 (11724087_x_at) / Fold change /veh FIZ1 (11724087_x_at) / RFU OASL (11726364_x_at) / Fold change /veh OASL (11726364_x_at) / RFU SOX15 (11748057_x_at) / Fold change /veh SOX15 (11748057_x_at) / RFU CD79A (11719716_a_at) / Fold change /veh CD79A (11719716_a_at) / RFU HIST1H1D (11736915_at) / Fold change /veh HIST1H1D (11736915_at) / RFU CASKIN2 (11723855_a_at) / Fold change /veh CASKIN2 (11723855_a_at) / RFU LOC730098 (11760151_x_at) / Fold change /veh LOC730098 (11760151_x_at) / RFU OR4N2 (11742367_at) / Fold change /veh OR4N2 (11742367_at) / RFU PRRT2 (11749266_a_at) / Fold change /veh PRRT2 (11749266_a_at) / RFU SNX32 (11753110_a_at) / Fold change /veh SNX32 (11753110_a_at) / RFU CDHR5 (11726645_a_at) / Fold change /veh CDHR5 (11726645_a_at) / RFU RCAN1 (11760418_a_at) / Fold change /veh RCAN1 (11760418_a_at) / RFU FAM167A (11723789_a_at) / Fold change /veh FAM167A (11723789_a_at) / RFU FAM26E (11764081_at) / Fold change /veh FAM26E (11764081_at) / RFU ISYNA1 (11749810_s_at) / Fold change /veh ISYNA1 (11749810_s_at) / RFU ACY1 (11761880_at) / Fold change /veh ACY1 (11761880_at) / RFU 11764098_at / Fold change /veh 11764098_at / RFU SAMD14 (11745864_x_at) / Fold change /veh SAMD14 (11745864_x_at) / RFU NPB (11741838_a_at) / Fold change /veh NPB (11741838_a_at) / RFU TMPRSS6 (11731388_a_at) / Fold change /veh TMPRSS6 (11731388_a_at) / RFU KRTAP10-2 (11738614_at) / Fold change /veh KRTAP10-2 (11738614_at) / RFU ARHGAP8 /// PRR5-ARHGAP8 (11727945_x_at) / Fold change /veh ARHGAP8 /// PRR5-ARHGAP8 (11727945_x_at) / RFU KRTAP5-7 /// NADSYN1 (11734609_at) / Fold change /veh KRTAP5-7 /// NADSYN1 (11734609_at) / RFU RASL12 (11751679_a_at) / Fold change /veh RASL12 (11751679_a_at) / RFU CDKN2B (11736163_a_at) / Fold change /veh CDKN2B (11736163_a_at) / RFU PRF1 (11729649_at) / Fold change /veh PRF1 (11729649_at) / RFU, ZNF638 /// ZNF638-IT1 / Fold change vs veh, ZNF638 /// ZNF638-IT1 / RFU, PANK3 / Fold change vs veh, PANK3 / RFU, SH3YL1 / Fold change vs veh, SH3YL1 / RFU, ZEB2 / Fold change vs veh, ZEB2 / RFU, NRIP1 / Fold change vs veh, NRIP1 / RFU, PTTG1IP / Fold change vs veh, PTTG1IP / RFU, CAPN2 / Fold change vs veh, CAPN2 / RFU, MED14 / Fold change vs veh, MED14 / RFU, SNORA58 / Fold change vs veh, SNORA58 / RFU, C1orf63 / Fold change vs veh, C1orf63 / RFU, LRRFIP1 / Fold change vs veh, LRRFIP1 / RFU, NDUFAF7 / Fold change vs veh, NDUFAF7 / RFU, SLC12A2 / Fold change vs veh, SLC12A2 / RFU, IBTK / Fold change vs veh, IBTK / RFU, ESF1 / Fold change vs veh, ESF1 / Fold change vs veh, TMEM50B / RFU, TAOK1 / Fold change vs veh, TAOK1 / RFU, ACBD3 / Fold change vs veh, ACBD3 / RFU, TMA16 / Fold change vs veh, TMA16 / RFU, RWDD3 / Fold change vs veh, RWDD3 / RFU, BCAT1 / Fold change vs veh, BCAT1 / RFU, EDEM3 / Fold change vs veh, EDEM3 / RFU, TMEM33 / Fold change vs veh, TMEM33 / RFU, WDR75 / Fold change vs veh, WDR75 / RFU, AHCTF1 / Fold change vs veh, AHCTF1 / RFU, TFRC / Fold change vs veh, TFRC / RFU, ZDHHC17 / Fold change vs veh, ZDHHC17 / RFU, NOM1 / Fold change vs veh, NOM1 / RFU, ARL8B / Fold change vs veh, ARL8B / RFU, ZBTB11 / Fold change vs veh, ZBTB11 / RFU, TAMM41 / Fold change vs veh, TAMM41 / RFU, KIAA1704 /// LOC100996395 / Fold change vs veh, KIAA1704 /// LOC100996395 / RFU, ING1 / Fold change vs veh, ING1 / RFU, TRMT61B / Fold change vs veh, TRMT61B / RFU, FUBP3 / Fold change vs veh, FUBP3 / RFU, TP53 / Fold change vs veh, TP53 / RFU, TNKS2 / Fold change vs veh, TNKS2 / RFU, ZFP14 / Fold change vs veh, ZFP14 / RFU, ACTR2 / Fold change vs veh, ACTR2 / RFU, PPP3R1 / Fold change vs veh, PPP3R1 / RFU, PIK3R1 / Fold change vs veh, PIK3R1 / RFU, HNRNPA1 / Fold change vs veh, HNRNPA1 / RFU, RNF170 / Fold change vs veh, RNF170 / RFU, ZNF28 / Fold change vs veh, ZNF28 / RFU, RNGTT / Fold change vs veh, RNGTT / RFU, OGT / Fold change vs veh, OGT / RFU, BRD1 / Fold change vs veh, BRD1 / RFU, MARS / Fold change vs veh, MARS / RFU, ZNF655 / Fold change vs veh, ZNF655 / RFU, FAHD1 / Fold change vs veh, FAHD1 / RFU, BDP1 / Fold change vs veh, BDP1 / RFU, LRRCC1 / Fold change vs veh, LRRCC1 / RFU, ARID1A / Fold change vs veh, ARID1A / RFU, ZNF146 / Fold change vs veh, ZNF146 / RFU, ZNF330 / Fold change vs veh, ZNF330 / RFU, GPN3 / Fold change vs veh, GPN3 / RFU, C9orf123 / Fold change vs veh, C9orf123 / RFU, N4BP2L2 / Fold change vs veh, N4BP2L2 / RFU, ARFIP1 / Fold change vs veh, ARFIP1 / RFU, FAM179B / Fold change vs veh, FAM179B / RFU, BCL10 / Fold change vs veh, BCL10 / RFU, UHRF1BP1L / Fold change vs veh, UHRF1BP1L / RFU, BET1 / Fold change vs veh, BET1 / RFU, CNOT2 / Fold change vs veh, CNOT2 / RFU, ZNF268 / Fold change vs veh, ZNF268 / Fold change vs veh, ZNF507 / RFU, DGCR2 / Fold change vs veh, DGCR2 / RFU, WDSUB1 / Fold change vs veh, WDSUB1 / Fold change vs veh, HSP90B1 /// MIR3652 / RFU, ADSS / Fold change vs veh, ADSS / RFU, GK / Fold change vs veh, GK / RFU, ZNF148 / Fold change vs veh, ZNF148 / RFU, TAF9 / Fold change vs veh, TAF9 / RFU, SLC1A5 / Fold change vs veh, SLC1A5 / RFU, SLMO2 / Fold change vs veh, SLMO2 / RFU, ABCC4 / Fold change vs veh, ABCC4 / RFU, LOC101060439 /// RAP1B / Fold change vs veh, LOC101060439 /// RAP1B / RFU, RFX7 / Fold change vs veh, RFX7 / RFU, GTPBP10 / Fold change vs veh, GTPBP10 / RFU, CNEP1R1 / Fold change vs veh, CNEP1R1 / RFU, BIVM-ERCC5 /// ERCC5 / Fold change vs veh, BIVM-ERCC5 /// ERCC5 / RFU, ILF3 / Fold change vs veh, ILF3 / RFU 11762660_at / Fold change /veh 11762660_at / RFU VCAN (11757783_s_at) / Fold change /veh VCAN (11757783_s_at) / RFU DDX43 (11728927_at) / Fold change /veh DDX43 (11728927_at) / RFU KRT8 (11758188_x_at) / Fold change /veh KRT8 (11758188_x_at) / RFU NKD1 (11759106_at) / Fold change /veh NKD1 (11759106_at) / RFU SRD5A1 (11742802_a_at) / Fold change /veh SRD5A1 (11742802_a_at) / RFU TPSAB1 /// TPSB2 (11721975_s_at) / Fold change /veh TPSAB1 /// TPSB2 (11721975_s_at) / RFU GSTM3 (11746129_a_at) / Fold change /veh GSTM3 (11746129_a_at) / RFU IL23R (11737362_x_at) / Fold change /veh IL23R (11737362_x_at) / RFU TMEM51 (11727254_a_at) / Fold change /veh TMEM51 (11727254_a_at) / RFU PIWIL2 (11732686_x_at) / Fold change /veh PIWIL2 (11732686_x_at) / RFU ORM1 (11744905_x_at) / Fold change /veh ORM1 (11744905_x_at) / RFU CCDC152 (11743942_at) / Fold change /veh CCDC152 (11743942_at) / RFU ECM1 (11717891_a_at) / Fold change /veh ECM1 (11717891_a_at) / RFU IL23R (11748794_a_at) / Fold change /veh IL23R (11748794_a_at) / RFU TNFAIP8L3 (11732012_x_at) / Fold change /veh TNFAIP8L3 (11732012_x_at) / RFU MBOAT4 (11741988_at) / Fold change /veh MBOAT4 (11741988_at) / RFU 11764193_at / Fold change /veh 11764193_at / RFU TMEM53 (11763286_at) / Fold change /veh TMEM53 (11763286_at) / RFU MAGEB2 (11727129_at) / Fold change /veh MAGEB2 (11727129_at) / RFU TMEM200A (11744735_a_at) / Fold change /veh TMEM200A (11744735_a_at) / RFU CCDC152 (11751479_a_at) / Fold change /veh CCDC152 (11751479_a_at) / RFU FAM211A (11726209_a_at) / Fold change /veh FAM211A (11726209_a_at) / RFU RGS16 (11746705_a_at) / Fold change /veh RGS16 (11746705_a_at) / RFU VCAN (11755009_s_at) / Fold change /veh VCAN (11755009_s_at) / RFU RHOB (11743442_s_at) / Fold change /veh RHOB (11743442_s_at) / RFU RGS16 (11720943_a_at) / Fold change /veh RGS16 (11720943_a_at) / RFU RGS16 (11720944_at) / Fold change /veh RGS16 (11720944_at) / RFU, VPS4B / Fold change vs veh, VPS4B / RFU, CREB1 / Fold change vs veh, CREB1 / RFU, DNAJC13 / Fold change vs veh, DNAJC13 / RFU, GNAQ / Fold change vs veh, GNAQ / RFU, CDK5R1 / Fold change vs veh, CDK5R1 / RFU, ZRANB3 / Fold change vs veh, ZRANB3 / RFU, CUL4A / Fold change vs veh, CUL4A / RFU, CCNY / Fold change vs veh, CCNY / RFU, UFL1 / Fold change vs veh, UFL1 / RFU, COG3 / Fold change vs veh, COG3 / RFU, DIAPH2 / Fold change vs veh, DIAPH2 / RFU, SKA2 / Fold change vs veh, SKA2 / RFU, AFF3 / Fold change vs veh, AFF3 / RFU, LMF1 / Fold change vs veh, LMF1 / RFU, IPO11 / Fold change vs veh, IPO11 / RFU, DFFB / Fold change vs veh, DFFB / RFU, FOXP1 / Fold change vs veh, FOXP1 / RFU, CARD8 / Fold change vs veh, CARD8 / RFU, STRN3 / Fold change vs veh, STRN3 / RFU, ADK / Fold change vs veh, ADK / RFU, RASSF2 / Fold change vs veh, RASSF2 / RFU, WIPF1 / Fold change vs veh, WIPF1 / RFU, LARP1B / Fold change vs veh, LARP1B / RFU, RASA1 / Fold change vs veh, RASA1 / RFU, RB1 / Fold change vs veh, RB1 / RFU, PPFIA1 / Fold change vs veh, PPFIA1 / RFU, MAT2A / Fold change vs veh, MAT2A / RFU, CCT5 / Fold change vs veh, CCT5 / RFU, WDR92 / Fold change vs veh, WDR92 / RFU, CUX1 / Fold change vs veh, CUX1 / RFU, TTC7A / Fold change vs veh, TTC7A / RFU, TMEM135 / Fold change vs veh, TMEM135 / RFU, DEPTOR / Fold change vs veh, DEPTOR / RFU, CPM / Fold change vs veh, CPM / RFU, DNAJB6 / Fold change vs veh, DNAJB6 / RFU, CACNA2D3 / Fold change vs veh, CACNA2D3 / RFU, DTX4 / Fold change vs veh, DTX4 / RFU, TFCP2 / Fold change vs veh, TFCP2 / RFU, GMCL1 /// GMCL1P1 / Fold change vs veh, GMCL1 /// GMCL1P1 / RFU, AEBP2 / Fold change vs veh, AEBP2 / RFU, SNHG1 /// SNORD22 /// SNORD25 /// SNORD26 /// SNORD27 /// SNORD28 /// SNORD29 /// SNORD31 / Fold change vs veh, SNHG1 /// SNORD22 /// SNORD25 /// SNORD26 /// SNORD27 /// SNORD28 /// SNORD29 /// SNORD31 / Fold change (Aza/veh), C12orf56 (ProbeSet 11735607_a_at) / Fold change (ACY-1035/veh), C12orf56 (ProbeSet 11735607_a_at) / Fold change (Aza/veh), FGFR1OP (ProbeSet 11751329_s_at) / Fold change (ACY-1035/veh), FGFR1OP (ProbeSet 11751329_s_at) / Fold change (Aza/veh), VPS36 (ProbeSet 11739960_a_at) / Fold change (ACY-1035/veh), VPS36 (ProbeSet 11739960_a_at) / RFU SYPL1 (11715823_x_at) / Fold change /veh SYPL1 (11715823_x_at) / RFU IGFBP7 (11715501_s_at) / Fold change /veh IGFBP7 (11715501_s_at) / RFU REEP3 (11722064_at) / Fold change /veh REEP3 (11722064_at) / RFU IGLL1 (11728026_x_at) / Fold change /veh IGLL1 (11728026_x_at): dose or concentration left out as unconfirmed
Details: MV-4-11 cells, 48 hours

Question: With Nc1ncn([C@@H]2O[C@H](CO)[C@@H](O)[C@H]2O)c(=O)n1 [azacitidine] as the compound, how does the “RFU TMEM136 (11760407_x_at)” value read?
Answer: The value was 16.07 RFU.
